Assay results reported in patent publication US7605168B2 (Plexxikon, Inc., priority 2004, dated 2009).

Assays:
[1] = molecular target: T1, PDE4B: catalytic domain of human PDE4B from S152-S528 (Homo sapiens, UniProt Q07343); assay: PDE4 IC50 determination by Scintillation Proximity Assay (SPA), PDE4B catalytic domain; format: biochemical; settings: [3H]cAMP SPA, 30 min at 30° C.
T1 construct: The catalytic domain of human PDE4B from S152-S528; His6 (N, cleaved yes); thrombin cleavage site (N, cleaved yes); made in house; host or cells: E. coli BL21 (DE3) RIL
Protocol: (§1) IC50s were determined by Scintillation Proximity Assay (SPA). The principle of the assay is based on the fact that cAMP, the PDE4 substrate, binds weakly to Yittrium Silicate SPA beads, whereas AMP, the product of PDE4 hydrolysis binds strongly. Thus, the extent of PDE4 hydrolysis of a sample of [^3H]cAMP can be measured because only the [^3H]AMP produced by PDE4 hydrolysis will bind to the SPA beads and produce a scintillation signal.
Enzyme was stored in 50% glycerol at −20°.
(§2) In addition to the compound dilutions, each assay plate contained control wells with 1 μl of DMSO (to define 0% enzyme inhibition) or 1 μl of 200 μM roflumilast (to define 100% enzyme inhibition). Using a Beckman FX robot, 10 μl of [^3H] cAMP (Amersham TRK559) at […] in assay buffer (50 mM Tris, pH 7.5; 8.3 mM MgCl; 1.7 mM EGTA; 0.01% BSA) was transferred to each assay well. Next, 10 μl of PDE4 enzyme in assay buffer was added and the plates were shaken for 30 s. at 1000 rpm to start the cAMP hydrolysis reaction. The concentrations of enzyme used were: PDE4B, 80 ng/ml; PDE4D, 4 ng/ml; PDE4B2, 2.5 μl of 50% glycerol stock/ml; PDE4D5 0.083 μl of 50% glycerol stock/ml. Assay plates were covered and incubated for 30 min. at 30° C. Reactions were stopped by robotic addition of 10 μl of 5 mg/ml SPA beads (Amersham RPNQ0013) in 18 mM ZnSO4. The assay plates were covered with clear plastic film, centrifuged for 1 min. at 1000 RPM to settle the SPA beads, and counted using a Wallac TriLux scintillation counter. IC50's were calculated from the raw assay data by non-linear regression curve fitting using the Assay Explorer software package from MDL.

[2] = molecular target: T2, PDE4B2: full-length human PDE4B2 isozyme (Homo sapiens, UniProt Q07343); assay: PDE4 IC50 determination by Scintillation Proximity Assay (SPA), full-length PDE4B2; format: biochemical; settings: cell lysate, [3H]cAMP SPA
T2 construct: made in house; host or cells: baculovirus infected insect cells (pFastBacHT)
Protocol: (§3) The enzyme was not purified from the cell lysates, so enzyme concentrations were not determined. Enzyme was stored in 50% glycerol at −20°.
as §1, §2

[3] = test system: TNF-α release from whole blood cultures stimulated with LPS; assay: IC50 by TNF alpha production upon stimulation of whole blood cultures with LPS; format: cell-based; settings: human whole blood (buffy coat) culture, 100 ng/ml LPS, 4 hours; read-out: h TNFα IC50
Protocol: Compounds were assayed to generate IC50 numbers based on the inhibition of TNF-α release from whole blood cultures, using the following assay protocol (see Table 5 for compounds tested and results). Inhibition of PDE4B results in the inhibition of TNF-α release by whole blood cultures stimulated with lipopolysaccharide (LPS). The measurement of TNF-α release was used to assess compounds as PDE4B inhibitors.
Compounds were provided in DMSO at 20 mM and 2 μl per well was added to one row of a dilution plate. Added 98 μl of RPMI 1640 media with 2.5% heat inactivated FBS to each well containing compound. The same media with 2% DMSO was prepared and 60 μl was added to each of the empty wells in the dilution plate. The compound was serially diluted 1:3 (30 μl to 60 μl of media) for a total of 8 concentrations per compound. Wells were also prepared with 50 μM roflumilast and piclamilast as 100% inhibition controls, and 2% DMSO in media was used as 0% inhibition control. A 20 μl aliquot of each sample was transferred to an assay plate in duplicate.
Human buffy coat was obtained from the Stanford Medical School Blood Center and diluted with 7 volumes of RPMI 1640 media with 1% penicillin/streptomycin and 2.5% heat inactivated FBS. A 160 μl aliquot of the diluted blood was added to each well of the assay plates, mixed and incubated for 1 hour at 37° C. in 5% CO2. LPS (Sigma catalog number L2637) that had been diluted to 1 mg/ml in PBS and stored as 20 μl aliquots at −20° C. was thawed and diluted 1000× to 1 μg/ml. A 20 μl aliquot of this was added to each sample (final concentration 100 ng/ml LPS) after the 1 hour incubation. A background sample was prepared without addition of LPS as well. The samples were mixed on a shaker for one minute at 900 RPM and incubated for 4 hours at 37° C. in 5% CO2. The plates were then put on a shaker for one minute at 900 RPM, followed by centrifuging at 100×g for 10 minutes, deceleration setting of 5. The top 75 μl of supernatant was carefully pipetted to a new plate and frozen at −20° C.
A 50 μl aliquot of incubation buffer (Biosource International Immunoassay Kit:Human TNF-α catalog number KHC3011) was added to each well of a plate coated with monoclonal antibody specific for hTNF-α (Biosource kit). The supernatant blood samples were thawed and a 50 μl aliquot along with 50 μl of diluent buffer (Biosource kit) were added to incubation buffer and the samples were incubated for 2 hours at room temperature. The samples were washed 4 times with 300 μl/well wash buffer (Biosource kit). A 100 μl aliquot of biotinylated anti-TNFalpha (Biosource kit) was added and the samples incubated for 1 hour at room temperature. The samples were washed 4 times with 300 μl/well wash buffer. A 100 μl aliquot of Streptavidin-HRP solution (BioSource kit) was added and the samples incubated for 30 minutes at room temperature. The samples were washed 4 times with 300 μl/well wash buffer. A 100 μl aliquot of Chromagen (Biosource kit) was added and the samples incubated in the dark for 30 minutes. A 100 μl aliquot of stop solution (2N H2SO4) was added to each sample and samples were read at 450 nm on a WallacVictor for 0.1 sec/well.

[4] = molecular target: T3, PDE4D5: full-length human PDE4D5 isozyme (Homo sapiens, UniProt Q08499); assay: PDE4 IC50 determination by Scintillation Proximity Assay (SPA), full-length PDE4D5; format: biochemical; settings: cell lysate, [3H]cAMP SPA
T3 construct: made in house; host or cells: baculovirus infected insect cells (pFastBacHT)
Protocol: as §3, §1, §2

T2 sequence (Q07343 with tags, fused parts or gaps isoform Q07343-2): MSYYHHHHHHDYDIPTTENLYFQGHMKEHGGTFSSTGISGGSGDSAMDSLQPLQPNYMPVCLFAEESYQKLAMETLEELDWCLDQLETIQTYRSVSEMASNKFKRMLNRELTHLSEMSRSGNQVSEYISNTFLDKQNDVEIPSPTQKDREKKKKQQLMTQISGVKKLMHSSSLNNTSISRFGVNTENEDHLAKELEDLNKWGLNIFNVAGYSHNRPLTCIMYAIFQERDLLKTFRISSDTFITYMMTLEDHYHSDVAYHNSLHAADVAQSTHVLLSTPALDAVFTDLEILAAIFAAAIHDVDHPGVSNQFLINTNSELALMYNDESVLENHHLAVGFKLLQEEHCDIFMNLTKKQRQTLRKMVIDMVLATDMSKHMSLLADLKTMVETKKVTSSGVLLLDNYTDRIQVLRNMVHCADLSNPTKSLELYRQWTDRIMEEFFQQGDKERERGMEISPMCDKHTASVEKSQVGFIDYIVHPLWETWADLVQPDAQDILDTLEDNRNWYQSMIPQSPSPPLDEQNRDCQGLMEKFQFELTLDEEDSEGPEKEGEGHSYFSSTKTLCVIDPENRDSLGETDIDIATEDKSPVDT
T3 sequence (Q08499 with tags, fused parts or gaps isoform Q08499-6): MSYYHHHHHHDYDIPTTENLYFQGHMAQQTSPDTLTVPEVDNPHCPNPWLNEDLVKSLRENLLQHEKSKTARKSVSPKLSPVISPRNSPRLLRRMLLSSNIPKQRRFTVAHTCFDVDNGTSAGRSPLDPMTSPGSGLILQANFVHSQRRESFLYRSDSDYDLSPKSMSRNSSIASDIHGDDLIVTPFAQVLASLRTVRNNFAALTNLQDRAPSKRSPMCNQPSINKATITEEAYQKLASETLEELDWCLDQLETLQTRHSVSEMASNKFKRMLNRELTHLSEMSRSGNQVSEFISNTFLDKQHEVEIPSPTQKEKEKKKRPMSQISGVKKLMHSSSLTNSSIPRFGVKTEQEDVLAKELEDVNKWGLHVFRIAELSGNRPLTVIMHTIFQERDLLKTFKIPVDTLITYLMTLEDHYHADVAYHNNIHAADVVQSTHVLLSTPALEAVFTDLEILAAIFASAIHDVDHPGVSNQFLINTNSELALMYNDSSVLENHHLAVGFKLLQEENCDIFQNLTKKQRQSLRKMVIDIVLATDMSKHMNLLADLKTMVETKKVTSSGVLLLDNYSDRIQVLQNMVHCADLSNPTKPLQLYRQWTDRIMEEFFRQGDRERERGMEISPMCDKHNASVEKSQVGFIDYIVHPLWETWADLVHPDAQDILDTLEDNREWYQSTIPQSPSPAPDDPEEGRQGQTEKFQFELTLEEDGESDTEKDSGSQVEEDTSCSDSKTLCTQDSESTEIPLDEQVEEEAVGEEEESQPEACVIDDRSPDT
T1 sequence (Q07343 324-700): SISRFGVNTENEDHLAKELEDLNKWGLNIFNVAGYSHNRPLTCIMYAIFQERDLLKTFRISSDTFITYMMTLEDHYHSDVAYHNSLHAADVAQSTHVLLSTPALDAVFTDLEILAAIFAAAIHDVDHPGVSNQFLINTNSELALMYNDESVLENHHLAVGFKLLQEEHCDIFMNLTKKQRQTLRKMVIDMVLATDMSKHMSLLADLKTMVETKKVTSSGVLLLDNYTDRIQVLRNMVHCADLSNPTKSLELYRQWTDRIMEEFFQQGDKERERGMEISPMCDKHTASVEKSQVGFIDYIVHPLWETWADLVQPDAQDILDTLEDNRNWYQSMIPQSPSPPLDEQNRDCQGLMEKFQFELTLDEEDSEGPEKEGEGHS

| IC50 [1] | IC50 [2] | IC50 [3] | IC50 [4] | SMILES |
| --- | --- | --- | --- | --- |
| < 10 µM | < 10 µM | ≤ 10 µM | < 10 µM | COc1ccc(-c2cn(S(=O)(=O)Cc3ccccc3)c3ncccc23)cc1OC [Compound 8, 3-(3,4-dimethoxy-phenyl)-1-phenylmethanesulfonyl-1H-pyrrolo[2,3-b]pyridine] |
| < 10 µM | < 10 µM | ≤ 10 µM | < 10 µM | COc1ccc(-c2cn(S(=O)(=O)Cc3cccc(Cl)c3)c3ncccc23)cc1OC [Compound 9, 1-(3-chloro-phenylmethanesulfonyl)-3-(3,4-dimethoxy-phenyl)-1H-pyrrolo[2,3-b]pyridine] |
| < 10 µM | < 10 µM | ≤ 10 µM | < 10 µM | COc1ccc(-c2cn(S(=O)(=O)c3ccc4ccccc4c3)c3ncccc23)cc1OC [Compound 11, 3-(3,4-Dimethoxy-phenyl)-1-(naphthalene-2-sulfonyl)-1H-pyrrolo[2,3-b]pyridine] |
|  | < 10 µM | ≤ 10 µM | < 10 µM | CCOc1ccc2ccccc2c1C(=O)n1cc(-c2ccc(S(C)(=O)=O)cc2)c2cccnc21 [Compound 84, (2-Ethoxy-naphthalen-1-yl)-[3-(4-methanesulfonyl-phenyl)-pyrrolo[2,3-b]pyridin-1-yl]-methanone] |
|  | < 10 µM | ≤ 10 µM | < 10 µM | COc1ccc(-c2cn(C(=O)c3ccc(C#N)cc3)c3ncccc23)cc1OC [Compound 106, 4-[3-(3,4-Dimethoxy-phenyl)-pyrrolo[2,3-b]pyridine-1-carbonyl]-benzonitrile] |
|  | < 10 µM | ≤ 10 µM | < 10 µM | COc1ccc(-c2ccc3c(ccn3S(=O)(=O)c3cccc4cccnc34)c2)cc1OC [Compound 130, 8-[5-(3,4-Dimethoxy-phenyl)-indole-1-sulfonyl]-quinoline] |
|  | < 10 µM | ≤ 10 µM | < 10 µM | COc1ccc(-c2cccc3c2ccn3S(=O)(=O)c2cccc3cccnc23)cc1OC [Compound 131, 8-[4-(3,4-Dimethoxy-phenyl)-indole-1-sulfonyl]-quinoline] |
|  | < 10 µM | ≤ 10 µM | < 10 µM | COc1ccc(-c2cnc3c(ccn3S(=O)(=O)c3ccccc3)c2)cc1OC [Compound 132, 1-Benzenesulfonyl-5-(3,4-dimethoxy-phenyl)-1H-pyrrolo[2,3-b]pyridine] |
|  | < 10 µM | > 10 µM | < 10 µM | COC(=O)c1cccc(C#Cc2c[nH]c3ncc(-c4ccc(OC)c(OC)c4)cc23)c1 [Compound 139, 3-[5-(3,4-Dimethoxy-phenyl)-1H-pyrrolo[2,3-b]pyridin-3-ylethynyl]-benzoic acid methyl ester] |
|  | < 10 µM | > 10 µM | < 10 µM | COc1ccc(-c2cnc3[nH]cc(C#Cc4cccc(C(=O)O)c4)c3c2)cc1OC [Compound 140, 3-[5-(3,4-Dimethoxy-phenyl)-1H-pyrrolo[2,3-b]pyridin-3-ylethynyl]-benzoic acid] |

Second part, the molecule before the results:

| SMILES | IC50 [1] | IC50 [2] | IC50 [3] | IC50 [4] |
| --- | --- | --- | --- | --- |
| CCOc1ccc2ccccc2c1C(=O)n1cc(-c2cccc(S(C)(=O)=O)c2)c2cccnc21 [Compound 86, (2-Ethoxy-naphthalen-1-yl)-[3-(3-methanesulfonyl-phenyl)-pyrrolo[2,3-b]pyridin-1-yl]-methanone] |  | < 10 µM | ≤ 10 µM | < 10 µM |
| CCOc1ccc2ccccc2c1C(=O)n1cc(-c2cccc(C(=O)OCc3ccccc3)c2)c2cccnc21 [Compound 87, 3-[1-(2-Ethoxy-naphthalene-1-carbonyl)-1H-pyrrolo[2,3-b]pyridin-3-yl]-benzoic acid benzyl ester] |  | < 10 µM | ≤ 10 µM | < 10 µM |
| COc1ccc2c(c1)c(-c1ccc(OC)c(OC)c1)cn2S(=O)(=O)c1cccc2cccnc12 [Compound 92, 8-[3-(3,4-Dimethoxy-phenyl)-5-methoxy-indole-1-sulfonyl]-quinoline] |  | < 10 µM | ≤ 10 µM | < 10 µM |
| COc1ccc(-c2cn(S(=O)(=O)c3cccc4cccnc34)c3ccc(Cl)cc23)cc1OC [Compound 93, 8-[3-(3,4-Dimethoxy-phenyl)-5-chloro-indole-1-sulfonyl]-quinoline] |  | < 10 µM | ≤ 10 µM | < 10 µM |
| CCOc1ccc2ccccc2c1C(=O)n1cc(-c2ccc(OC)c(OC3CCCC3)c2)c2cccnc21 [Compound 119, [3-(3-Cyclopentyloxy-4-methoxy-phenyl)-pyrrolo[2,3-b]pyridin-1-yl]-(2-ethoxy-naphthalen-1-yl)-methanone] |  | < 10 µM | ≤ 10 µM | < 10 µM |
| CCOc1ccc2ccccc2c1C(=O)n1cc(-c2cccc(C(N)=O)c2)c2cccnc21 [Compound 121, 3-[1-(2-Ethoxy-naphthalene-1-carbonyl)-1H-pyrrolo[2,3-b]pyridin-3-yl]-benzamide] |  | < 10 µM | ≤ 10 µM | < 10 µM |
| CCOc1ccc2ccccc2c1C(=O)n1cc(-c2cccc(NS(C)(=O)=O)c2)c2cccnc21 [Compound 122, N-{3-[1-(2-Ethoxy-naphthalene-1-carbonyl)-1H-pyrrolo[2,3-b]pyridin-3-yl]-phenyl}-methanesulfonamide] |  | < 10 µM | ≤ 10 µM | < 10 µM |
| COc1ccc(-c2cccc3[nH]ccc23)cc1OC [Compound 128, 4-(3,4-Dimethoxy-phenyl)-1H-indole] |  | < 10 µM | ≤ 10 µM | < 10 µM |
| COc1ccc(-c2ccc3[nH]ccc3c2)cc1OC [Compound 129, 5-(3,4-Dimethoxy-phenyl)-1H-indole] |  | < 10 µM | ≤ 10 µM | < 10 µM |
| COc1ccc(-c2cnc3[nH]cc(C#Cc4ccccc4)c3c2)cc1OC [Compound 138, 5-(3,4-Dimethoxy-phenyl)-3-phenylethynyl-1H-pyrrolo[2,3-b]pyridine] |  | < 10 µM | ≤ 10 µM | < 10 µM |
